Data published in patent publication US20080279848A1, “Methods of treating lupus using CD4 antibodies” (GENENTECH, INC., priority 2006, published 2008).

How the values were obtained:
[1] = tested on: NZBxW F1 mice (spontaneous lupus-like kidney disease); assay: NZBxW F1 preclinical model of SLE, treatment initiated at 9 months of age (severe disease), CD4 antibody and MMF
Description: (§1) Proteinuria was measured using a Clinitek® 50 Urine Chemistry Analyzer (Bayer Corporation, Elkhart, Ind., USA). A drop of freshly collected urine was placed on a reagent strip (Multistix® 10 SG, Bayer), and the strip was immediately inserted into the analyzer after removal of excess urine by blotting with a clean gauze sponge.
Numbers of activated CD4+ T cells found in spleen were determined by flow cytometry as follows. Whole spleens were harvested and crushed into single cell suspensions, which were then red blood cell lysed using EL buffer (erythrocyte lysis buffer, from Qiagen, Valencia, Calif., catalog number 79217), passed through a 70 micron cell strainer, and then resuspended for cell counts. A fixed volume of each cell suspension was mixed with a fluorescent bead (Polysciences, Inc., catalog number 18862) solution of known concentration. The mixture was then run on a FACScan™ flow cytometer from BD Biosciences (Franklin Lakes, N.J.). By collecting a fixed number of beads for each mixture, the total number of live cells could be calculated and subsequently used to determine total numbers of cell subpopulations for the spleen of each mouse after further FACS analysis.
Treatment of NZB×NZW mice was initiated at 9 months of age. Mice were screened for proteinuria and randomized into groups based on their proteinuria scores. […] Mice were monitored for changes in proteinuria (urinalysis was performed as described above in Example 1), disease progression, and survival. […] MMF was given IP at either 25 mg/kg daily or 50 mg/kg daily (alone or in combination with the CD4 antibody).
CD4^+ T cell and B2 B cell numbers were determined by flow cytometry basically as described above, using antibodies to identify the various cell populations and then using the percentage of each population represented (of total lymphocytes) multiplied by the total number of lymphocytes to determine the number of each population. B2 cells (the majority of B cells) were identified by positive staining for B220 (CD45) and CD38. Anti-B220/CD45 and anti-CD38 were from BD Pharmingen.
Comparisons were performed using Dunnett's method with the control antibody treated group as the reference control group (designated in bold), and only p values for groups that achieve statistical significance vs. the reference control are designated on the graph.

[2] = tested on: NZBxW F1 mice (spontaneous lupus-like kidney disease); assay: NZBxW F1 preclinical model of SLE, treatment initiated at 8 months of age (moderate-severe disease); assay type: in vivo, mouse; details: over time after treatment; CTX 50 mg/kg IP every 10 days; FIG. 7A
From the text: The control antibody was an irrelevant mouse IgG1 antibody (a mouse antibody was used for the control since an irrelevant rat antibody would elicit an immune response against itself, influencing the course of disease; the rat anti-CD4 antibody prevents such a response to itself).
At 8 months of age, NZB×NZW mice were screened for proteinuria and randomized into 5 groups based on their proteinuria scores. At this age, disease is considered to be moderate-severe. At the onset of the experiment, each group of 19 mice was composed of the following distribution of protein concentrations in the urine: 32% at >300 mg/dl; 24% at 100-300 mg/dl; and 44% at 30-100 mg/dl. […] Mice were monitored for changes in urine protein concentration (e.g., proteinuria), Blood Urea Nitrogen (BUN), and survival.
as §1
Blood urea nitrogen was measured using a Cobas Integra® 400 chemistry analyzer (Roche Diagnostics, Basel, Switzerland) and urea detection reagent (also supplied by Roche Diagnostics) according to the manufacturer's instructions. […]

[3] = tested on: SJL/J mice with PLP-139-151 peptide induced EAE; assay: Relapsing and remitting EAE induced by PLP peptide in SJL/J mice (model of MS); assay type: in vivo, mouse; details: treatment initiated at day 14 (peak of disease), CD4 antibody = murinized YTS177; FIG. 12
From the text: Experimental autoimmune encephalomyelitis (EAE) is an inflammatory condition of the central nervous system (CNS) with similarities to MS; in both diseases, demyelination results in impaired nerve conduction and paralysis. Relapsing and remitting EAE induced by injection of proteolipid protein (PLP) peptide in SJL/J mice provides a useful preclinical efficacy model of MS (see, e.g., Miller and Karpus (1996) “Experimental Autoimmune Encephalomyelitis in the Mouse” in Current Protocols in Immunology, Coligan et al. (eds.), John Wiley & Sons, Inc. and Sobel et al. (1990) “Acute experimental allergic encephalomyelitis in SJL/J mice induced by a synthetic peptide of myelin proteolipid protein” J Neuropathol Exp Neurol. 49(5):468-79).
FIG. 10 schematically illustrates progression of the disease over time after injection of the PLP peptide in this model. Injection at day 0 is followed by disease onset (days 0-15), remission (days 15-25), and relapse (day 25-termination of the study at days 60-70). […]
Numbers of effector/memory cells in the blood were determined by flow cytometry as follows. […]
To 1×10^6 cells, a saturating amount of fluorophore-conjugated antibodies were added and incubated on ice for 30 minutes, followed by washing with cold buffer. […] Samples were analyzed by flow cytometry on a FACSCalibur from BD Biosciences. […]

**Q.** Which results are given for `COc1c(C)c2c(c(O)c1C/C=C(\C)CCC(=O)OCCN1CCOCC1)C(=O)OC2` [MMF, 2-morpholinoethyl (E)-6-(1,3-dihydro-4-hydroxy-6-methoxy-7-methyl-3-oxo-5-isobenzofuranyl)-4-methyl-4-hexenoate]?
**A.** blood B2 B cell numbers ([1]; 25 mg/kg MMF, may not be statistically significant, FIG. 20B): increase; proteinuria, multiple comparison analysis (Dunnett's method) vs control antibody ([1]; month 2 of treatment, MMF 50 or 25 mg/kg daily, FIG. 19): did not show statistically significant reduction in proteinuria; capacity to reverse severe proteinuria (mice reversed from 300 mg/dl proteinuria) ([1]; one month of treatment, MMF 25 or 50 mg/kg daily IP, YTS177 5 mg/kg 3x/week, FIG. 17B): not sufficient to reverse severe proteinuria significantly; mice exhibiting >300 mg/dl proteinuria (reversal of nephritis symptoms in very late stage disease) ([1]; over time after treatment, FIG. 17A): not observed

**Q.** `O=P1(N(CCCl)CCCl)NCCCO1` (stereo not drawn) [cyclophosphamide] was tested. Which “mice exhibiting >300 mg/dl proteinuria (reversal of nephritis symptoms in very late stage disease)” value [2] did it give?
**A.** Its value is “not observed”.

**Q.** Which clinical score [3] does the source give for glatiramer acetate here?
**A.** The clinical score was “ineffective”.
